# Results: patent publication US8546377B2 (AbbVie Inc., priority 2009, dated 2013)
# Target: T1, h-5-HT6 receptor (Homo sapiens, UniProt P50406)
# T1 construct: expressed in transfected cells; host or cells: HEK293 cells (membrane preparation)
# Assay: Human 5-HT6 receptor radioligand binding assay ([3H]-LSD, HEK293 membranes)
# Conditions: HEK293 membranes, 1 nM [3H]-lysergic acid diethylamide, 3.5 hours at room temperature; read-out: Ki (μM), 5-HT6 Agonist Site Radioligand Binding
# Method: (iv) Human 5-HT6 Receptor Radioligand Binding Assay
# Preparation of Membranes by Ultrasonic Treatment and Differential Centrifugation
# Cells from stable clonal cell lines expressing the corresponding receptor (5-HT6) were washed with PBS (without Ca^++, Mg^++) and harvested in PBS with 0.02% EDTA. The cells were collected by centrifugation at 500 g for 10 minutes at 4° C., washed with PBS and centrifuged (500 g, 10 minutes at 4° C.). The pellets were stored at −80° C. until use. For membrane preparation, the thawed cell pellet was resuspended in ice-cold sucrose buffer (0.25 M sucrose, 10 mM HEPES (pH 7.4), 1 mM phenylmethylsulfonyl fluoride (PMSF) in DMSO, 5 μg/ml Pepstatin-A, 3 mM EDTA, 0.025% Bacitracin) and homogenized with a Branson Sonifier W-250 (Settings: Timer 4; Output Control 3; Duty Cycle constant; 2 to 3 cycles). Cell disruption was checked with the aid of a microscope. Remaining unbroken cells were pelleted at 1,000 g for 10 minutes at 4° C. The sucrose buffer supernatant was then centrifuged at 60,000 g for 1 hour at 4° C. (Beckman Ultrazentrifuge XL 80). The pellet was resuspended in 30 mL of ice-cold Tris buffer (20 mM TRIS (pH 7.4), 5 μg/mL Pepstatin A, 0.1 mM PMSF, 3 mM EDTA) by pipetting through a 10 mL serological pipet and centrifuged for 1 hour at 4° C. at 60,000 g. A final resuspension was performed in a small volume of ice-cold Tris buffer (see above) by pressing through a serological pipet followed by ultrasonic treatment with a Branson Sonifier W-250 (Settings: Timer 1; Output Control 3; Duty Cycle constant; 1 cycle). Protein concentration was determined (BCA-Kit; Pierce) and aliquots stored at −80° C. or in liquid nitrogen for long-term storage.
# Receptor Binding Experiments
# All receptor binding experiments were carried out in the corresponding assay buffer in a total volume of 200 μL in the presence of various concentrations of test compound (10^−5 M to 10^−9 M, tenfold serial dilution, duplicate determinations). The assays were terminated by filtration on polyethylenimine (PEI 0.1% or 0.3%) presoaked Packard Unifilter Plates (GF/C or GF/B) with a Tomtec MachIII U 96 well-plate harvester. After the plates had been dried for 2 hours at 55° C. in a drying chamber scintillation cocktail (BetaPlate Scint; PerkinElmer) was added. Radioactivity was measured in a Microbeta Trilux two hours after the addition of the scintillation mixture.
# 5-HT6 Receptor Binding Assay
# HEK293 cells stably expressing the h-5-HT6 receptor (NCBI Reference Sequence XM 001435) were cultured in RPMI1640 medium supplemented with 25 mM HEPES, 10% fetal calf serum and 1-2 mM glutamine. The membrane preparation was performed as described above. […] On the day of the assay, the membranes were thawed, diluted in assay buffer (50 mM Tris-HCl, 5 mM CaCl2, 0.1% ascorbic acid, 10 μM pargyline, pH 7.4) to a concentration of 8 μg protein/assay and homogenized by gentle vortexing. […] Non-specific binding was defined with 1 μM methiothepin. The binding reaction was carried out for 3.5 hours at room temperature. During the incubation, the plates were shaken on a plate shaker at 100 rpm and terminated by filtration on Packard Unifilter GF/C (0.1% PEI) plates, followed by 2 wash cycles with ice-cold 50 mM Tris-HCl, 5 mM CaCl2.
# Data derived from liquid scintillation counting were analyzed by iterative non-linear regression analysis with the use of the Statistical Analysis System (SAS): a program similar to “LIGAND” as described by Munson and Rodbard (Anal. Biochem. 1980, 107, 220-239). Fitting was performed according to formulae described by Feldman (Anal. Biochem. 1972, 48, 317-338). IC50, nH and Ki values were expressed as geometrical mean.
# The results of the receptor binding studies are expressed as receptor binding constants Ki(5-HT6) as described herein before, and given in Table 5.
# T1 sequence (P50406 whole entry): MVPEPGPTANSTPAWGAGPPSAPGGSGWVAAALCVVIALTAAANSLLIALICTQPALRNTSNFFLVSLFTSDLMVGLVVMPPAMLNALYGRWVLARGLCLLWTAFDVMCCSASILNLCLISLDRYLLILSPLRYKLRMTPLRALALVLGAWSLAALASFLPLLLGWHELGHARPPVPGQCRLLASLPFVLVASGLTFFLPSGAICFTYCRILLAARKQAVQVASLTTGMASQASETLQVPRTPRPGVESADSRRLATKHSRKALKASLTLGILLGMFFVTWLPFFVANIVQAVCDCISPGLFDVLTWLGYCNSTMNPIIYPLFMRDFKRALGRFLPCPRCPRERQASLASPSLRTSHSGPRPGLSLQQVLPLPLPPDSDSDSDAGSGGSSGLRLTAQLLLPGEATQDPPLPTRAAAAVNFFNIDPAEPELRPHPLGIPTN
row,SMILES,Ki
1,"O=C1CC2CNCCN2c2ccc(NS(=O)(=O)c3cccc(OC(F)(F)F)c3)cc2N1 (stereo not drawn) [Example 120, N-(6-oxo-1,2,3,4,4a,5,6,7-octahydropyrazino[1,2-a][1,5]benzodiazepin-9-yl)-3-(trifluoromethoxy)benzenesulfonamide]",0.0183 µM
2,"O=C1CC2CNCCN2c2ccc(NS(=O)(=O)c3ccc(Cl)s3)cc2N1 (stereo not drawn) [Example 127, 5-chloro-N-(6-oxo-1,2,3,4,4a,5,6,7-octahydropyrazino[1,2-a][1,5]benzodiazepin-9-yl)thiophene-2-sulfonamide]",0.0443 µM
3,"O=C1CC2CNCCN2c2ccc(NS(=O)(=O)c3cccs3)cc2N1 (stereo not drawn) [Example 109, N-(6-oxo-1,2,3,4,4a,5,6,7-octahydropyrazino[1,2-a][1,5]benzodiazepin-9-yl)thiophene-2-sulfonamide]",0.0556 µM
4,"N#Cc1ccc(S(=O)(=O)Nc2ccc3c(c2)NC(=O)CC2CNCCN32)cc1 (stereo not drawn) [Example 121, 4-cyano-N-(6-oxo-1,2,3,4,4a,5,6,7-octahydropyrazino[1,2-a][1,5]benzodiazepin-9-yl)benzenesulfonamide]",0.621 µM
5,"O=C1CC2CNCCN2c2ccc(NS(=O)(=O)c3c(F)cccc3F)cc2N1 (stereo not drawn) [Example 123, 2,6-difluoro-N-(6-oxo-1,2,3,4,4a,5,6,7-octahydropyrazino[1,2-a][1,5]benzodiazepin-9-yl)benzenesulfonamide]",0.0583 µM
6,"COc1ccc(S(=O)(=O)Nc2ccc3c(c2)NC(=O)CC2CNCCN32)cc1 (stereo not drawn) [Example 108, 4-methoxy-N-(6-oxo-1,2,3,4,4a,5,6,7-octahydropyrazino[1,2-a][1,5]benzodiazepin-9-yl)benzenesulfonamide]",0.0669 µM
7,"N#Cc1cccc(S(=O)(=O)Nc2ccc3c(c2)NC(=O)CC2CNCCN32)c1 (stereo not drawn) [Example 122, 3-cyano-N-(6-oxo-1,2,3,4,4a,5,6,7-octahydropyrazino[1,2-a][1,5]benzodiazepin-9-yl)benzenesulfonamide]",0.19 µM
8,"COc1cccc(S(=O)(=O)Nc2ccc3c(c2)NC(=O)CC2CNCCN32)c1 (stereo not drawn) [Example 107, 3-methoxy-N-(6-oxo-1,2,3,4,4a,5,6,7-octahydropyrazino[1,2-a][1,5]benzodiazepin-9-yl)benzenesulfonamide]",0.022 µM
9,"Cc1ccc(S(=O)(=O)Nc2ccc3c(c2)NC(=O)CC2CNCCN32)cc1 (stereo not drawn) [Example 99, 4-methyl-N-(6-oxo-1,2,3,4,4a,5,6,7-octahydropyrazino[1,2-a][1,5]benzodiazepin-9-yl)benzenesulfonamide]",0.0221 µM
10,"Cc1ccc(C)c(S(=O)(=O)Nc2ccc3c(c2)NC(=O)CC2CNCCN32)c1 (stereo not drawn) [Example 125, 2,5-dimethyl-N-(6-oxo-1,2,3,4,4a,5,6,7-octahydropyrazino[1,2-a][1,5]benzodiazepin-9-yl)benzenesulfonamide]",0.0156 µM

# The remaining lines, values ahead:
row,Ki,SMILES
1,0.0234 µM,"O=C1CC2CNCCN2c2ccc(NS(=O)(=O)c3ccccc3C(F)(F)F)cc2N1 (stereo not drawn) [Example 126, N-(6-oxo-1,2,3,4,4a,5,6,7-octahydropyrazino[1,2-a][1,5]benzodiazepin-9-yl)-2-(trifluoromethyl)benzenesulfonamide]"
2,0.0068 µM,"O=C1CC2CNCCN2c2ccc(NS(=O)(=O)c3cccc4ccccc34)cc2N1 (stereo not drawn) [Example 124, N-(6-oxo-1,2,3,4,4a,5,6,7-octahydropyrazino[1,2-a][1,5]benzodiazepin-9-yl)napthalene-1-sulfonamide]"
3,0.0299 µM,"O=C1CC2CNCCN2c2ccc(NS(=O)(=O)c3ccccc3F)cc2N1 (stereo not drawn) [Example 103, 2-fluoro-N-(6-oxo-1,2,3,4,4a,5,6,7-octahydropyrazino[1,2-a][1,5]benzodiazepin-9-yl)benzenesulfonamide]"
4,0.0043 µM,"O=C1CC2CNCCN2c2ccc(NS(=O)(=O)c3ccc4ccccc4c3)cc2N1 (stereo not drawn) [Example 128, N-(6-oxo-1,2,3,4,4a,5,6,7-octahydropyrazino[1,2-a][1,5]benzodiazepin-9-yl)naphthalene-2-sulfonamide]"
5,0.0224 µM,"Cc1ccccc1S(=O)(=O)Nc1ccc2c(c1)NC(=O)CC1CNCCN21 (stereo not drawn) [Example 98, 2-methyl-N-(6-oxo-1,2,3,4,4a,5,6,7-octahydropyrazino[1,2-a][1,5]benzodiazepin-9-yl)benzenesulfonamide]"
